Test results from US11274131B2, “IgM-mediated receptor clustering and cell modulation” (MAYO FOUNDATION FOR MEDICAL EDUCATION AND RESEARCH, priority 2007, dated 2022).

Assays:
[1] = test system: CD11c+ draining lymph node cells; test: In vivo antigen uptake by CD11c+ draining lymph node cells; design: species or system mouse; details: systemic antibody
Description: FIG. 7A is a pair of pictures of western blot analysis for phosphorylation of DAP12 and Syk in B7-DC XAb or control antibody-treated mouse DC, as indicated. FIG. 7B is a graph plotting percent CD11c+ inguinal lymph node cells in mice after OVA-FITC was introduced into the footpads of mice treated systemically with isotype control antibody or the MTAb B7-DC XAb (n=3/group). Cells were analyzed by flow cytometry 24 hours after OVA-FITC introduction.
Antigen uptake experiments were carried out as described previously (Radhakrishnan et al. (2005) Proc. Natl. Acad. Sci. U.S.A. 102:11438-11443). Day 5 DC were matured with TLR ligand CpG-ODN for mouse DC, or with pI:C for human DC. The matured cells were incubated with ovalbumin labeled with FITC or APC and control antibody or B7-DC XAb for two hours, washed and analyzed by FACSCALIBUR™ (Becton Dickinson). In studies involving inhibitors, cells were pretreated 30 minutes as indicated or at 10 μM concentration prior to addition of control antibody or B7-DC XAb. In vivo antigen uptake assays involving wild type or TREM-2−/− mice were carried out by intravenous injection of 10 μg of control antibody or B7-DC XAb on three consecutive days (days −1, 0 and +1). Ovalbumin coupled to FITC was injected in the right foot pad at 1 mg/ml in PBS at 100 μA volume. […] The data are expressed as percent green cells (ovalbumin-FITC) that are positive for CD11c.

B16-Ova cells = test: B16-Ova tumor challenge with Ova-pulsed antibody-treated DCs; format: in vivo, mouse; details: mice given wild type DCs or B7DC reconstituted knockout DCs treated with antibody
Description: FIG. 17 is a graph depicting protection of mice from B16-Ova tumor challenge by injection of Ova-pulsed DCs expressing the Kb-peptide constructs treated with MTabs. Tumor area was measured daily, with tumor area on day 11 represented in the graph.
DCs treated with hIgM12 can induce potent anti-tumor immunity. […] A variation of this model was used to determine whether Kb-peptide expressing DCs could induce protective tumor immunity. C57BL6 mice were injected subcutaneously in the right flank with 5×10^5 B16-Ova cells, a B16 variant engineered to express ovalbumin. Wild type DCs or B7DC−/− DCs transduced with mB7DC or the Kb constructs were pulsed with 10 ug/mL ovalbumin and treated with 10 ug/mL of either hIgM12 or hIgM22, 24 hours prior to injection. Before injection, DCs were washed and resuspended in 200 μL, HBSS. 10^6 DCs were injected intravenously by tail vein concurrent to B16 injection. Three mice were used in each treatment group. Tumor area was measured daily, and mice were sacrificed when tumor area reached 289 mm^2. […] Thus, DC expressing Kb-peptide fusions were able to induce protective tumor immunity.

human DC = test: Immunoblot of phosphorylation of signaling intermediates in human DC; format: cell-based
Description: FIGS. 2A to 2G are a series of pictures showing that a kinase activated pathway regulates antibody-induced antigen uptake by matured DC. Matured human monocyte-derived DC were treated with the MTAb B7-DC XAb for varying time periods and evaluated for the phosphorylation status of select signaling pathway intermediates by immunoprecipitation with DAP12 (MC457), Syk (4D10), and PLCγ1 (MC490) reactive antibodies followed by western blot analysis using the phosphotyrosine reactive antibody 4G10 as a probe (FIGS. 2A-2C). Samples of the cells blocked with indicated concentration of piceatannol (FIG. 2D) or with […] of piceatannol (FIG. 2E) were analyzed for phosphorylation of Syk (FIG. 2D) and PLCγ1 (FIG. 2E). To investigate the functional importance of these signaling intermediates in the regulation of antigen uptake by matured DC activated with B7-DC XAb, varying concentrations of pharmacologic inhibitors were used to block the activity of p72Syk (piceatannol) and PLCγ1 (U73122) (FIGS. 2F and 2G, respectively). Antigen uptake was assessed by pulsing cultures with FITC-conjugated ovalbumin and measuring intracellular fluorescence 16 hours later in CD11c positive cells by flow cytometry.
In experiments involving assessment of the phosphorylation status of various protein kinases using whole cell lysate, dendritic cells of mouse or human origin or Jurkat cells were stimulated at the indicated times with control antibody or B7-DC XAb, and were lysed on ice for 10 minutes in 1 ml buffer containing 20 mM Tris-HCl, 40 mM NaCl, 5 mM EDTA, 50 mM NaF, 30 mM Na4P2O7, 0.1% BSA, 1 mM Na3VO4, 1 mM PMSF, 5 μg/ml aprotinin, 10 μg/ml leupeptin, and 1% Triton X-100. Cellular debris was removed by centrifugation at 20,800×g for 5 minutes at 4° C. and the supernatant was used in SDS-PAGE analysis for phosphorylated tyrosine proteins. For immunoprecipitation, antibody against mouse Syk (4D10) or PLC yl (MC490) or DAP12 (MC457) at 10 μg per sample was bound to protein A-Sepharose beads at 4° C. for 2 hours under constant rotation. Supernatants from cell lysate after stimulation were incubated with antibody coupled beads for 2 hours at 4° C. with constant rotation. […] Tyrosine-phosphorylated proteins were detected using the anti-phosphotyrosine specific antibody, 4G10, followed by goat anti-mouse IgG coupled to Horse Radish Peroxidase (Santa Cruz Biotechnology) and the SuperSignal detection system (Pierce Biotechnology, Rockford, Ill.). […] The supernatants were resolved by SDS-PAGE, probed with anti-mouse TREM-2 antibody (237920) and detected by Goat-anti mouse antibody coupled to HRP, or probed with affinity purified anti-mouse CD40 (1C10) and detected by Goat-anti mouse antibody coupled to HRP.

## B7-DC XAb: human monoclonal IgM from a Waldenstrom's macroglobulinemia patient that binds and cross-links B7-DC on DC
[1]; TREM-2 KO mice
  uptake of labeled ovalbumin by CD11c+ lymph node cells: had no effect on uptake
[1]; wild type mice
  uptake of labeled ovalbumin in lymph nodes: significantly activated uptake of labeled ovalbumin
B16-Ova cells
  protection from tumor outgrowth: successfully protected from tumor outgrowth
Human DC; human DC
  phosphorylation of PLCγ1: concomitant with the phosphorylation of PLCγ1
Human DC; human DC treated with antibody
  phosphorylation of cellular proteins: induced as early as one minute after treatment
Human DC; human DC, cross-linking B7-DC
  phosphorylation of DAP12: rapidly phosphorylated
Human DC; human DC, immunoprecipitated Syk
  phosphorylation of Syk: revealed phosphorylation of the protein tyrosine kinase
